Source: the NIST ThermoML archive (doi:10.1016/j.jct.2006.09.003)
± gives the expanded uncertainty stated by the source.

Settings: Fluid (supercritical or subcritical phases), Bellows volumetry

CCCC [butane]
mass density [kg/m3]
Settings	280 K	300 K	320 K	340 K	360 K	380 K
1000 kPa	595.47 ± 1.1	572.94 ± 1	548.24 ± 0.99	521.26 ± 0.94	–	–
2000 kPa	596.86 ± 1.1	574.58 ± 1	550.53 ± 0.99	524.21 ± 0.94	494.28 ± 0.89	456.63 ± 0.82
3000 kPa	598.22 ± 1.1	576.27 ± 1	552.73 ± 0.99	527.06 ± 0.95	498.49 ± 0.9	463.53 ± 0.83
5000 kPa	600.88 ± 1.1	579.56 ± 1	556.84 ± 1	532.46 ± 0.96	505.91 ± 0.91	474.94 ± 0.86
10000 kPa	607.05 ± 1.1	586.77 ± 1.1	566.09 ± 1	544.06 ± 0.98	520.98 ± 0.94	495.21 ± 0.89
20000 kPa	617.68 ± 1.1	599.44 ± 1.1	580.87 ± 1.1	561.99 ± 1	542.91 ± 0.98	522.42 ± 0.94
30000 kPa	626.91 ± 1.1	610.13 ± 1.1	593.19 ± 1.1	576.2 ± 1	559.24 ± 1	541.49 ± 0.98
40000 kPa	635.29 ± 1.1	619.89 ± 1.1	603.68 ± 1.1	588.27 ± 1.1	572.58 ± 1	556.53 ± 1
50000 kPa	642.77 ± 1.2	628.14 ± 1.1	612.97 ± 1.1	598.47 ± 1.1	584.17 ± 1.1	569.05 ± 1
60000 kPa	649.44 ± 1.2	635.82 ± 1.1	621.23 ± 1.1	607.64 ± 1.1	593.9 ± 1.1	580.01 ± 1.1
70000 kPa	655.79 ± 1.2	642.36 ± 1.2	628.85 ± 1.1	615.81 ± 1.1	602.93 ± 1.1	589.59 ± 1.1
80000 kPa	661.73 ± 1.2	648.71 ± 1.2	635.85 ± 1.1	623.32 ± 1.1	610.9 ± 1.1	598.34 ± 1.1
90000 kPa	667.23 ± 1.2	654.83 ± 1.2	642.47 ± 1.2	630.37 ± 1.1	618.47 ± 1.1	606.19 ± 1.1
100000 kPa	672.51 ± 1.2	660.41 ± 1.2	648.38 ± 1.2	636.58 ± 1.1	625.39 ± 1.1	613.44 ± 1.1
120000 kPa	682.08 ± 1.8	670.68 ± 1.2	659.38 ± 1.2	648.45 ± 2.9	637.62 ± 1.2	626.58 ± 1.1
140000 kPa	690.89 ± 1.8	680.05 ± 1.2	669.21 ± 1.2	658.64 ± 2.9	648.76 ± 1.2	638.25 ± 1.2
160000 kPa	698.82 ± 1.8	688.48 ± 1.3	678.31 ± 1.2	668.16 ± 3	658.47 ± 1.2	648.59 ± 1.2
180000 kPa	706.38 ± 1.9	696.25 ± 1.3	686.49 ± 1.3	676.9 ± 3	667.68 ± 1.2	658.14 ± 1.2
200000 kPa	713.34 ± 1.9	703.51 ± 1.3	694.12 ± 1.3	684.85 ± 3	676.03 ± 1.3	666.86 ± 1.2
